Here are results for five compounds from US7582760B2, “Benzimidazolone and dihydroindolone derivatives and uses thereof” (Roche Palo Alto LLC, priority 2005, dated 2009).

The structures appear in SMILES notation. Where a name gives a salt, the structure may show the parent alone.

Series [1] deals with T1, recombinant human 5-HT6 receptor (Homo sapiens, UniProt P50406).
T1 construct: expressed in transfected cells; membranes
The series can be described thus: Radioligand binding, competition for [3H]LSD in HEK293 cell membranes. The following applies: receptor not printed for this value in the sentence; radioligand binding of Example 13. Here is the method:
(§1) The binding activity of compounds of this invention in vitro was determined as follows. Duplicate determinations of 5-HT6 ligand affinity were made by competing for binding of [^3H]LSD in cell membranes derived from HEK293 cells stably expressing recombinant human 5-HT6 receptor. Duplicate determinations of 5-HT2A ligand affinity were made by competing for binding of [^3H]Ketanserin (3-(2-(4-(4-fluorobenzoyl)piperidinol)ethyl)-2,4(1H,3H)-quinazolinedione) in cell membranes derived from CHO-K^1 cells stably expressing recombinant human 5-HT2A receptor. Membranes were prepared from HEK 293 cell lines by the method described by Monsma et al., Molecular Pharmacology, Vol. 43 pp. 320-327 (1993), and from CHO-K1 cell lines as described by Bonhaus et al., Br J. Pharmacol. June; 115(4):622-8 (1995).
(§2) For estimation of affinity at the 5-HT6 receptor, all determinations were made in assay buffer containing 50 mM Tris-HCl, 10 mM MgSO4, 0.5 mM EDTA, 1 mM ascorbic acid, pH 7.4 at 37° C., in a 250 microliter reaction volume. […]
(§3) Assay tubes containing [^3H] […] LSD or [^3H]Ketanserin were determined as radioactive counts per minute using Packard TopCount.
(§4) Displacement of [^3H]LSD or [^3H]Ketanserin from the binding sites was quantified by fitting concentration-binding data to a 4-parameter logistic equation: […]

For series [2], the target named is T2, recombinant human 5-HT2A receptor (Homo sapiens, UniProt P28223).
T2 construct: expressed in transfected cells; membranes
The series can be described thus: Radioligand binding, competition for [3H]Ketanserin in CHO-K1 cell membranes. As to conditions: [3H]Ketanserin displacement, read-out: pKi for the 5-HT2A receptor (converted). Here is the method:
as §1, §2, §3, §4

T2 sequence (P28223 whole entry): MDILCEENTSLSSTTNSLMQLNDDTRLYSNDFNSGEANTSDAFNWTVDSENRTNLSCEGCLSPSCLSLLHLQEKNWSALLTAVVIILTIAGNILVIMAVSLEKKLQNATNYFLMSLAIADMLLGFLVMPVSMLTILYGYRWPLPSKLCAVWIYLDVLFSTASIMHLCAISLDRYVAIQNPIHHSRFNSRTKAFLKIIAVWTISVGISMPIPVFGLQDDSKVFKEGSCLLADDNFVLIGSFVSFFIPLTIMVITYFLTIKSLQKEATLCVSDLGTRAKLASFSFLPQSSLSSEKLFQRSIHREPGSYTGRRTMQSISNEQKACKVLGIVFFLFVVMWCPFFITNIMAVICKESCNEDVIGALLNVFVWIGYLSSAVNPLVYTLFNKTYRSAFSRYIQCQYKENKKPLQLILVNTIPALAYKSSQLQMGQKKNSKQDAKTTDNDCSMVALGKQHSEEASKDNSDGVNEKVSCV
T1 sequence (P50406 whole entry): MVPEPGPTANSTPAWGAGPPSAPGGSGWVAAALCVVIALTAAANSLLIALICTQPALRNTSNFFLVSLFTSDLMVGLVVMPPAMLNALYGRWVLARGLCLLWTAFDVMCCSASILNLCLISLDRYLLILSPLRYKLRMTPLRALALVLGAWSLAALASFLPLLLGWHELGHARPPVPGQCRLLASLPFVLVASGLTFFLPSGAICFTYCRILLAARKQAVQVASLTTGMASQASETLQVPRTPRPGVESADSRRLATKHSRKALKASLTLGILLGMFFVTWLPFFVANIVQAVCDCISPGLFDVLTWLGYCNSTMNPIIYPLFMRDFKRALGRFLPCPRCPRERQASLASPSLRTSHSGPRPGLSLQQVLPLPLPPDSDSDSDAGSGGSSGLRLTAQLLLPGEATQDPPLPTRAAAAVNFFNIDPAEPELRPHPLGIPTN

For the compound `O=c1[nH]c2c(N3CCNCC3)ccc(Cl)c2n1Cc1cccc(F)c1` [7-Chloro-1-(3-fluoro-benzyl)-4-piperazin-1-yl-1,3-dihydro-benzoimidazol-2-one], in series [1], the Ki is ~331 pM.

Take `O=c1[nH]c2c(OC3CNC3)cccc2n1Cc1ccccc1`: the melting point – broadly, the temperature, or range, at which the solid turns liquid – was 181 to 184 °C.

`O=c1[nH]c2c(OCC3CNC3)cccc2n1Cc1ccccc1` (as salt: hydrochloride) returned a melting point of 210 to 216.6 °C.

In the case of `O=C1Cc2c(N3CCNCC3)cccc2N1Cc1ccc(F)c(F)c1` [1-(3,4-Difluoro-benzyl)-4-piperazin-1-yl-1,3-dihydro-indol-2-one], in series [2], the Ki was ~331 pM.

In the case of `CNCCOc1cccc2c1n(C)c(=O)n2Cc1ccccc1` (as salt: hydrochloride), the melting point was in the range of 203.8 to 205.1 °C.
